The results in this text go back to PMC9653804, “Multifunctional Derivatives of Spiropyrrolidine Tethered Indeno-Quinoxaline Heterocyclic Hybrids as Potent Antimicrobial, Antioxidant and Antidiabetic Agents: Design, Synthesis, In Vitro and In Silico Approaches” (Molecules, 2022).

The structures appear in SMILES notation. Values after ≈ are worked out from the molar mass of the structure shown.

Broadly, the IC50 is the midpoint of a concentration-inhibition curve. A higher IC50 goes with a need for much substance. The MFC is the smallest concentration meeting the test's criterion for killing the fungus. A high value points to weaker fungicidal potency. As a reminder, the MIC is the smallest concentration in the dilution series that meets the test's criterion for growth inhibition. Low values mean a more susceptible organism, high ones a less susceptible organism. As a reminder, the melting point is the temperature, or range, at which the solid turns liquid.

In data set [1] the test system is Escherichia coli ATCC 25922. Put plainly: Antimicrobial activity (MIC, MBC) against E. coli. Particulars: E. coli ATCC 25922; '-' = No activity. The data set is classed as cell-based.
Data set [2] can be described thus: Ferric reducing power assay (FRAP).
The test system of data set [3] is Candida albicans ATCC 90028. Put plainly: Antifungal activity (MIC, MFC) against C. albicans. The class given is cell-based. Conditions: C. albicans ATCC 90028, '-' = No activity; for MFC/MIC: fungicidal ≤ 4, fungistatic > 4; for MFC / MIC: Candida albicans, ATCC90028.
Data set [4] can be described thus: DPPH free radical scavenging activity. Conditions: for IC50: DPPH radical scavenging. How it is done:
DPPH, the stable artificial free radicals, has been widely used for the measurement of free radical scavenging capacity of the compounds in ethanol and aqueous systems. Briefly, 2 mL DPPH solution (0.2 mM, in 95% ethanol) was incubated with 2 mL different concentrations of compounds solution. Then, the reaction mixture was shaken and incubated in the dark for 40 min at room temperature. The absorbance was immediately recorded at 517 nm against ethanol with a spectrophotometer (Metash, model UV-5200, Shanghai Xiwen Biotech. Co., Ltd, Shanghai, China). The DPPH free radical scavenging rate was calculated using the equation:DPPH scavenging activity (%) = A0 − A1/A0 × 100 where A0 was the absorbance of the control reaction (containing all reagents except the tested compound), and A1 was the absorbance of the test reaction (containing all reagents with the tested compound). The percentage of DPPH radical scavenging activity was plotted against the sample concentration to acquire the IC50 value, defined as the concentration of sample necessary to cause 50% inhibition. Radical scavenging activity (RSA) was calculated from the IC50 value as the equation: RSA = pIC50 = −lg[IC50]. The smaller the IC50 value, the larger is the RSA value and the higher is the antioxidant activity.
(DPPH is a stable violet radical that fades when it is reduced.)

The nature of data set [5]: Radical scavenging activity ABTS. Particulars: for IC50: ABTS radical scavenging. How it is done: The ABTS assay was performed as previously described by Tuberoso et al.. ABTS^+ radical was generated by oxidation of ABTS with potassium persulfate. The blue–green ABTS was produced through the reaction between 2 mM ABTS and […] potassium persulfate in water. The mixture was left to stand in the dark for 12 to 16 h before use. The ABTS solution was diluted with methanol to an absorbance of 0.700 ± 0.005 at 734 nm. Then 2 mL of diluted ABTS solution was mixed with 100 μL of samples and absorbance was measured after 1 min incubation at room temperature. A standard curve was obtained by using Trolox as standard solution. The results were expressed as μM Trolox equivalent.
The mixture of 7 mmol/L aqueous ABTS solution with 2.45 mmol/L potassium persulfate solution constitutes a stable ABTS^+ stock solution that was allowed to stand in the dark and at room temperature for 12 to 16 h before use. A 1 mL sample of the diluted ABTS solution (adjusted to 0.7 ± 0.02 at […]) was added to 10 μL of each product. The absorbance was determined after 6 min. The percentage inhibition of the ABTS˙ radical was calculated from the following equation:% inhibition = (Abscontrol − Abstest)/Abscontrol × 100
Abs control: the control absorbance.
Abs test: the absorbance of the test sample after 6 min.

Data set [6] has as its system Micrococccus luteus NCIMB 8166. Put plainly: Antimicrobial activity (MIC, MBC) against M. luteus. The class given is cell-based. Particulars: M. luteus NCIMB 8166, '-' = No activity.
A further data set relates to Candida krusei ATCC 6258. Nature of the data set: Antifungal activity (MIC, MFC) against C. krusei. The data set is classed as cell-based. Particulars: C. krusei ATCC 6258, '-' = No activity; for MFC / MIC: Pichia kudriavzevii, ATCC6258.
Data set [7] has as its system Pseudomonas aeruginosa ATCC 27853. Put plainly: Antimicrobial activity (MIC, MBC) against P. aeruginosa. The data set is classed as cell-based. Conditions: P. aeruginosa ATCC 27853, '-' = No activity.
Data set [8] in a line: Ferric reducing power assay (FRAP). Particulars: relative to standard Trolox. The protocol: The FRAP assay was used to determine the AC of the products by the reduction of Fe(III) and Fe (II). Briefly, Fe(III) was reduced to Fe(II), and Fe(II) was mixed with TPTZ to form a blue complex with strong absorption peak at 593 nm at pH = 3.6 condition. Acetate buffer (pH = 3.6), TPTZ solution (10 mM, in 40 mM hydrochloric acid) and FeCl3 solution (20 mM, in water) were mixed in a ratio of 10:1:1 to prepare FRAP working solution. The products solution (0.5 mL) was mixed with 4.0 mL FRAP working solution, and reacted at 37 °C for 30 min in the dark, and the absorbance at 593 nm was immediately recorded with a spectrophotometer. The result was expressed as the equivalent amount of Trolox per mole of the samples (mol TE/mol).

Data set [9] deals with Staphylococcus aureus ATCC 25923. Put plainly: Antimicrobial activity (MIC, MBC) against S. aureus. The class given is cell-based. Particulars: S. aureus ATCC 25923; for MBC/MIC: bactericidal ≤ 4, bacteriostatic > 4; for MIC: Staphylococcus aureus, ATCC25923, '-' = No activity.

As to `CN1C(=O)CC2(C1=O)C(c1ccc(Cl)cc1)CN(C)C21c2ccccc2-c2nc3ccccc3nc21` (stereo not shown) [5e, Spiro [2,11″]indeno-[1,2b]-quinoxaline-spiro-[3,3′]-N-methylsuccinimide-4-(4-chlorophenyl)hexahydro-1H-pyrrolidines], the melting point fell in the range of 182 to 184 °C. This compound registered an MBC/MIC in data set [1] of 2. For the same compound, the IC50 in [2] came to 6.54 ± 0.18 µM. Besides, in data set [3], the MFC/MIC is on record as 1, the MFC is 62.9 mM (≈ 31.1 mg/mL) and the MIC came to 62.9 mM (≈ 31.1 mg/mL). The compound further gave an IC50 in [4] of 6.12 ± 0.01 µM. In addition, the “DPPH scavenging activity, fold better than Trolox” value in [4] (relative to standard Trolox) was 5.1 fold. It took 12.2 ± 0.18 µM to reach half-maximal inhibition in data set [5] (IC50). For the same compound, the “ABTS scavenging activity, fold higher than Trolox” value in data set [5] (relative to standard Trolox) is listed as roughly 8 fold. In [6], this compound registered an MBC/MIC of 1. In the data set with Candida krusei ATCC 6258, the MFC/MIC came out at 1, the MFC was determined as 31.4 mM (≈ 15.6 mg/mL) and it took 31.4 mM (≈ 15.6 mg/mL) to inhibit growth (MIC). In [7], this compound yielded an MBC/MIC of 4. The “FRAP activity, fold higher than Trolox” value in [8] was “about 6.5 fold”. In [9], this compound registered an MBC/MIC of 16 and an MIC of 15.7 mM (≈ 7.78 mg/mL).
`CN1C(=O)CC2(C1=O)C(c1cccs1)CN(C)C21c2ccccc2-c2nc3ccccc3nc21` (stereo not shown) [5h, Spiro [2,11″]indeno-[1,2b]-quinoxaline-spiro-[3,3′]-N-methylsuccinimide-4-(4-thiophenyl)hexahydro-1H-pyrrolidines] had a melting point of 203 to 205 °C. In data set [1], the MBC/MIC came out at 2. In addition, the IC50 in [2] was found to be 6.32 ± 0.68 µM. In data set [3], this compound gave an MFC/MIC of 4 and an MIC of 66.7 mM (≈ 31.1 mg/mL). In data set [4], the 50% inhibitory concentration (IC50) was 19.1 ± 0.23 µM. In [5], the IC50 was found to be 18.04 ± 0.13 µM. The MBC/MIC in [6] is reported as 1. In the data set with Candida krusei ATCC 6258, this compound returned an MFC/MIC of 1, an MFC of 66.7 mM (≈ 31.1 mg/mL) and an MIC of 66.7 mM (≈ 31.1 mg/mL). In addition, the MBC/MIC in [7] came to 2. For the same compound, the “FRAP activity, fold higher than Trolox” value in data set [8] is recorded as “about 6.5 fold”. In addition, in [9], the MBC/MIC turned out to be 16 and the MIC was 33.3 mM (≈ 15.6 mg/mL).
With `CN1C(=O)CC2(C1=O)C(c1cccc(Cl)c1)CN(C)C21c2ccccc2-c2nc3ccccc3nc21` (stereo not shown) [5i, Spiro [2,11″]indeno-[1,2b]-quinoxaline-spiro-[3,3′]-N-methylsuccinimide-4-(3-chloro-phenyl)hexahydro-1H-pyrrolidines], the melting point lay within 193 to 195 °C. The MBC/MIC in [1] is listed as 2. For the same compound, the IC50 in data set [2] came to 5.98 ± 0.52 µM. The compound further registered an IC50 in [4] of 7.8 ± 0.32 µM. This compound also yielded an IC50 in data set [5] of 11.4 ± 0.36 µM. The same compound gave an MBC/MIC in [6] of 1. Moreover, in the data set with Candida krusei ATCC 6258, the MFC/MIC worked out at 1, the MFC was 31.4 mM (≈ 15.6 mg/mL) and the MIC was determined as 31.4 mM (≈ 15.6 mg/mL). For the same compound, in [7], the MBC/MIC was 4. The “FRAP activity, fold higher than Trolox” value in [8] is reported as “about 6.5 fold”. Moreover, the MBC/MIC in data set [9] was 4.
Compound `COc1ccc(C2CN(C)C3(c4ccccc4-c4nc5ccccc5nc43)C23CC(=O)N(C)C3=O)cc1OC` (stereo not shown) [5j, Spiro [2,11″]indeno-[1,2b]-quinoxaline-spiro-[3,3′]-N-methylsuccinimide-4-(3,4-dimethoxyphenyl)hexahydro-1H-pyrrolidines] showed a melting point of 211 to 213 °C. This compound had an MBC/MIC in [1] of 2. The same compound yielded an IC50 in data set [2] of 5.98 ± 0.17 µM. Besides, in data set [3], the MFC/MIC worked out at 2. Besides, the IC50 in data set [4] was 19.2 ± 0.19 µM. In data set [5], this compound showed an IC50 of 11.56 ± 0.05 µM. The MBC/MIC in data set [6] amounted to 2. In the data set with Candida krusei ATCC 6258, this compound showed an MFC/MIC of 1, an MFC of 59.8 mM (≈ 31.1 mg/mL) and an MIC of 59.8 mM (≈ 31.1 mg/mL). In data set [7], the MBC/MIC is 2. In [9], this compound had an MBC/MIC of 32 and an MIC of 14.9 mM (≈ 7.78 mg/mL).
`CN1C(=O)CC2(C1=O)C(c1ccc(O)c(Br)c1)CN(C)C21c2ccccc2-c2nc3ccccc3nc21` (stereo not shown) [5l, Spiro [2,11″]indeno-[1,2b]-quinoxaline-spiro-[3,3′]-N-methylsuccinimide-4-(3-bromo-4-hydroxy-phenyl)hexahydro-1H-pyrrolidines] came in with a melting point of 189 to 191 °C. This compound also displayed an MBC/MIC in [1] of 2. The concentration for half-maximal inhibition (IC50) in data set [2] is 3.26 ± 0.45 µM. In [3], this compound came in with an MFC/MIC of 8 and an MIC of 56.1 mM (≈ 31.1 mg/mL). Besides, the IC50 in data set [4] worked out at 15.3 ± 0.37 µM. Also, in data set [5], the IC50 stood at 15.2 ± 0.31 µM. The compound also came in with an MBC/MIC in data set [6] of 2. In the data set with Candida krusei ATCC 6258, this compound registered an MFC/MIC of 1, an MFC of 28 mM (≈ 15.6 mg/mL) and an MIC of 28 mM (≈ 15.6 mg/mL). In data set [7], this compound gave an MBC/MIC of 4. In [9], this compound showed an MBC/MIC of 16 and an MIC of 28 mM (≈ 15.6 mg/mL).
On to `CN1C(=O)CC2(C1=O)C(c1cc(Br)c(O)c(Br)c1)CN(C)C21c2ccccc2-c2nc3ccccc3nc21` (stereo not shown) [5m, Spiro [2,11″]indeno-[1,2b]-quinoxaline-spiro-[3,3′]-N-methylsuccinimide-4-(3,5-dibromo-4-hydroxyphenyl)hexahydro-1H-pyrrolidines], for which the melting point lay in the range of 214 to 216 °C. This compound showed an MBC/MIC in data set [1] of 1. Further, in data set [2], inhibition was half-maximal at 7.38 ± 0.14 µM (IC50). In [3], this compound came in with an MFC/MIC of 1, an MFC of 98.2 mM (≈ 62.3 mg/mL) and an MIC of 98.2 mM (≈ 62.3 mg/mL). In addition, the IC50 in [4] was determined as 47.29 ± 0.06 µM. In data set [5], this compound registered an IC50 of 14.6 ± 0.26 µM. Besides, in data set [6] (Micrococcus luteus, NCIMB8166), the MIC came out at 98.2 mM (≈ 62.3 mg/mL). In the data set on Candida krusei ATCC 6258, the MFC/MIC was 1, the MFC amounted to 49.1 mM (≈ 31.1 mg/mL) and the lowest concentration to inhibit growth (MIC) was 49.1 mM (≈ 31.1 mg/mL). Further, the MBC/MIC in data set [7] is listed as 4. In [7] (Pseudomonas aeruginosa, ATCC27853), this compound registered an MIC of 98.2 mM (≈ 62.3 mg/mL). For the same compound, in data set [9], the MBC/MIC was 8 and the MIC worked out at 24.5 mM (≈ 15.6 mg/mL).
